From patent US4393178A, “Fast crystallizing polyester compositions” (priority 1979, dated 1983)
“And” between values parts separate entries of the source, which are not always exact repeats. Equal values may be shown once. Where a name gives a salt, the structure may show the parent alone. Read-outs that look alike come from different tables or passages of the source.

Columns and labels:
[1] = cited from earlier work
[2] = Crystallisation peak temperature on heating (Tn), DSC; format: physicochemical; conditions: for Tn (16° C./min): 1% salt deposited from solution on PET; for Tn(composition)-Tn(polyester): PET I.V. 0.73 + 1% salt, 2-roll mill 300 °C 2 min, 10 °C/minute
Experimental: In one such DSC technique the crystallisation peak temperature difference, Tn(composition)--Tn(polyester) is determined by measuring the crystallisation peak temperatures on heating for the composition in comparison with the polyester of the composition not containing the ionisable salt. The detailed procedure is as follows. Compositions were prepared from the polyester and the additive by mixing on a 2-roll mill at 300° C. for 2 minutes. The sample was taken from the mill and pressed into a film in a compression moulding machine. 10 mg samples of the composition were placed in a capsule, rapidly heated to 290° C. and maintained at that temperature for 1 minute. The capsule was then dropped into water to quench the polymer and prevent crystallisation. The sample was then placed in a Perkin Elmer DSC 2 machine and heated at a rate of 10° C./minute until reaching a temperature of 290° C. The crystallisation peak temperature observed on this heating cycle is recorded and compared with the value for the polyester not containing the additive.
Samples of polyethylene terephthalate (I.V. =0.73) containing 1% of the salts listed in Table 2 were prepared by compounding at 300° C. on a 2-roll mill for 2 minutes. The samples were evaluated to determine Tn(composition-Tn(polyester), the total number of end groups, the number of carboxylate groups and the number of hydroxyl and carboxyl groups.
The salts listed in Table 3 were deposited from solution on the surface of polyethylene terephthalate chip to give a concentration of 1% by weight of salt. The product was dried under vcuum at 96° C. for 3 hours. The compositions were pressed into film using a temperature of 280° C. for 1 minute. The DSC measurements were made after quenching from the melt to prevent crystallisation and using a heating rate of 16° C./minute.
1% by weight of the sodium salt of saccharin was deposited on the surface of granules of a polyethylene terephthalate homopolymer of I.V. =0.73 by evaporating an aqueous solution of the salt from the granules by drying at 96° C. under vacuum for 3 hours. The granules obtained were compression moulded into film by pressing at 280° C. for 60 second. The film was used for measurements of Tn at a heating rate of 16° C./minute.
The effect of the salts listed in Table 4 was determined by taking granules of a polymer of poly(ethylene terephthalate) homopolymer having an intrinsic viscosity of 0.73 and evaporating a solution of the salt in methanol or water from the surface of the granules by drying at 96° C. under vacuum for 3 hours. The proportions of polymer and solution used were such as to give a concentration of 1% of salt by weight of the final dry composition. The granules obtained were compression-moulded into film at 280° C. for various periods of time. The film was used for measurement of Tn as hereinbefore described.
Two samples of polyethylene terephthalate chip (I.V. =0.73) were coated from solution with 1% of the sodium salt of o-hydroxybenzoic acid and the disodium salt of the same acid respectively. After drying for 3 hours in a vacuum oven at 95° C. films were prepared by pressing the products for 1 minute at 280° C.

[3] = Degradation constant K (melt degradation performance); format: physicochemical; parameters: unit not given here; conditions: 1% salt in PET, 2-roll mill 270 °C 5 min; molten state 290 °C
Experimental: The melt degradation performance is a measure of the extent of degradation under molten conditions. A convenient method of quantifying the performance is by measuring the "K value". A method for determining this value in the molten state using an Instron Capillary rheometer is given in a paper by J. Devaux et al in Makromol.
This method is carried out on samples prepared by reacting the salt with the polyester on a 2 roll-mill at a temperature above the melting point of the polyester for 5 minutes and then pressing the product obtained into a 2 mm thick sheet using the same temperature for 3 minutes before cooling to room temperature. The method is described for polyethylene terephthalate but can be readily adapted for other polyesters.
For polyethylene terephthalate the K value in the presence of salt should be less than 60.

[4] = ΔT = Tc(cooling) - Tn(heating), DSC; format: physicochemical; conditions: 1% salt in PET, 2-roll mill 270 °C 5 min; 10 °C/minute
Experimental: An alternative method for assessing the effectiveness of nucleation of an additive is to compare the difference between the value of the crystallisation peak on cooling (Tc) with that on heating (Tn) for a composition containing an ionisable salt. The value obtained from this comparison, Tc(cooling) -Tn(heating) is termed ΔT. […] Samples of polyester together with 1% of the salt under test were mixed in a 2-roll mill at 270° C. for 5 minutes. The sample produced was pressed into 2 mm thick sheets at 270° C. for 3 minutes and then cooled to room temperature. 10 mg of the sample was placed in a capsule and rapidly heated to 290° C. After maintaining this temperature for 1 minute the capsule was quenched in water. The crystallisation peak temperatures on heating (Tn) and cooling (Tc) were determined using heating and cooling rates of 10° C./minute on a Perkin Elmer DSC 2 machine.

[5] = Solubility parameter δ of the acid; conditions: product for the acid
[6] = Half-crystallisation time (t1/2), isothermal DSC; format: physicochemical
Experimental: A DSC 2 Perkin Elmer scanning calorimeter was used.
10 mg of the sample of polymer material are placed in a capsule and introduced into the apparatus, wherein the sample is quickly heated to a temperature of 290° C. at which it is maintained during 1 minute.
The molten polymer material is then very quickly cooled by means of liquid air (at a rate of 320° C. per minute) until the crystallisation temperature is reached.
The crystallisation isotherm is registered on a temperature-time graph and the peak appearing on the registered isotherm is taken as the half-crystallisation time (t1/2).

[7] = End group determination; format: physicochemical
Experimental: The numbers of hydroxyl and carboxyl groups were also determined according to the procedure given in this paper.
[…] The samples were evaluated to determine Tn(composition-Tn(polyester), the total number of end groups, the number of carboxylate groups and the number of hydroxyl and carboxyl groups.

[8] = Degradation constant K (melt degradation performance); format: physicochemical; parameters: unit not given here; conditions: 1% salt deposited from solution on PET (Examples 13-15)
[9] = Crystallisation peak temperature on heating (Tn), DSC, block copolymer; format: physicochemical; conditions: 1% salt from solution on block copolymer; heating rate 16 °C/minute
Experimental: A block copolymer containing 5% by weight of polyethylene glycol units of molecular weight 1540 in chip form was blended with a solution of the sodium salt of o-chlorobenzoic acid to give a salt concentration of 1% by weight of the polyester. Samples were prepared for DSC analysis using the procedure of Example 15.
The polymer used in Example 16 and 1% of the disodium salt of o-hydroxy benzoic acid were compounded on a 2-roll mill at 270° C. for 2 minutes. […] (measured at a heating rate of 10° C./minute).

[10] = acid from which the salt is derived, in water
[11] = 110 °C, 1% salt in PET, 2-roll mill 270 °C 5 min, after melting 1 minute at 290 °C
[12] = 120 °C, 1% salt in PET, 2-roll mill 270 °C 5 min, after melting 1 minute at 290 °C
[13] = pressed 280 °C 1 minute, heating rate 16 °C/minute
[14] = 1% salt deposited from solution on PET chip, pressed 280 °C 1 minute
[15] = PET I.V. 0.73 + 1% salt, 2-roll mill 300 °C 2 min

| SMILES | K [3] | ΔT [4] [°C] | pKH.sbsb.2O [1, 10] | δ × pKH.sbsb.2O [5] | t1/2 (sec) 110° C. [6, 11] [s] | t1/2 (sec) 120° C. [6, 12] [s] | further results |
| --- | --- | --- | --- | --- | --- | --- | --- |
| O=S(=O)(O)c1ccccc1 [Sodium benzene sulphonate, reference compound] |  |  |  |  |  |  | Dissociation Constant ([1]; water): 2 × 10^-1; Tn [2]: 146 °C and 141.5 °C |
| O=C(O)c1ccc(O)cc1O [2,4-dihydroxy benzoic acid] | 35 | 99 | 3.2 | 47 | 95 | 45 |  |
| O=C(O)c1cccs1 [Sodium salt of 2-thiophencarboxylic acid] |  |  |  |  |  |  | Tn(comp.)-Tn(PET) (16° C./min) ([2]; 1% salt deposited from solution on PET chip, pressed 280 °C 1 minute, heating rate 16 °C/minute): 29 °C; Tn (16° C./min) [2, 13]: 112 °C; End Groups --COOH [7, 14]: 24 moles × 10^-6 g^-1; End Groups --OH [7, 14]: 59 moles × 10^-6 g^-1; End Groups Total from solution I.V. [7, 14]: 145 moles × 10^-6 g^-1; K [8]: 15 |
| O=C(O)c1ccc(Oc2ccccc2)cc1 [para-oxyphenylbenzoic acid] | 40 | 105 | 3.5 | 47 |  |  | t1/2 (sec) 110° C. [6]: 73 s; t1/2 (sec) 120° C. [6]: 38 s |
| O=C(O)c1ccc(Cl)cc1Cl [2,4-dichlorobenzoic acid] | 65 | 109 | 2.8 | 34 | 60 | 35 | Tn(composition)-Tn(polyester) [2]: 23 °C; % of carboxylate end group [7, 15]: 16.7%; End Groups --COOH [7, 15]: 67 moles × 10^-6 g^-1; End Groups --OH [7, 15]: 55 moles × 10^-6 g^-1; End Groups Carboxylate [7, 15]: 32 moles × 10^-6 g^-1; End Groups Total from solution I.V. [7, 15]: 192 moles × 10^-6 g^-1 |
| O=C(O)c1ccc(F)cc1 [para fluorobenzoic acid] | 60 | 104 | 4.1 | 50 | 70 | 38 |  |
| O=C(O)c1cccc(O)c1 [metra-hydroxy benzoic acid] | 86 | 91 | 3.9 | 54 | 165 | 55 |  |
| O=C(O)c1cccc([N+](=O)[O-])c1 [meta-nitrobenzoic acid] | 20 | 106 |  | 30 |  |  | pKH.sbsb.2O ([1]; water): 2.2; t1/2 (sec) 110° C. [6]: 65 s; t1/2 (sec) 120° C. [6]: 45 s |
| O=C(O)c1ccccc1O [ortho-hydroxy benzoic acid] | 26 | 105 |  |  |  |  | Tn (16° C./min) ([2]; pressed 280 °C 1 minute, heating rate 16 °C/minute, listed as sodium salt of o-hydroxybenzoic acid): 114 °C; K ([8]; listed as sodium salt of o-hydroxybenzoic acid): 26; t1/2 (sec) 110° C. [6]: 80 s; t1/2 (sec) 120° C. [6]: 40 s |
| O=C1NS(=O)(=O)c2ccccc21 [sodium salt of saccharin] |  |  |  |  |  |  | Tn (16° C./min) [2, 13]: 112 °C; K [8]: 9 |
| O=C(O)c1cccc(Cl)c1 [meta-chlorobenzoic acid] | 31 | 107 | 3.8 | 47 |  |  | t1/2 (sec) 110° C. [6]: 63 s; t1/2 (sec) 120° C. [6]: 40 s |
| O=C(O)c1cc([N+](=O)[O-])ccc1Cl [2-chloro-5-nitrobenzoic acid] | 52 | 108 |  | 29 | 65 | 40 | pKH.sbsb.2O ([1]; water): 2.2 |
| O=C(O)c1ccc([N+](=O)[O-])cc1 [para-nitrobenzoic acid] | 79 | 102 |  | 46 | 75 | 54 | pKH.sbsb.2O ([1]; water): 3.4 |
| O=C(O)c1c(O)cc(O)cc1O [2,4,6-dihydroxy benzoic acid] | 37 | 97 | 1.7 | 26 | 110 | 50 |  |
| O=C(O)c1cc([N+](=O)[O-])cc([N+](=O)[O-])c1 [3,5-dinitrobenzoic acid] | 44 | 102 | 2.8 | 38 | 85 | 45 |  |
| O=C(O)c1ccccc1Cl [ortho-chlorobenzoic acid] | 32 | 108 |  | 37 | 65 | 36 | Tn [9]: 102 °C; pKH.sbsb.2O ([1]; water): 3; Tn(composition)-Tn(polyester) [2]: 26 °C; % of carboxylate end group [7, 15]: 22%; End Groups --COOH [7, 15]: 45 moles × 10^-6 g^-1; End Groups --OH [7, 15]: 55 moles × 10^-6 g^-1; End Groups Carboxylate [7, 15]: 37 moles × 10^-6 g^-1; End Groups Total from solution I.V. [7, 15]: 167 moles × 10^-6 g^-1 |
| O=C(O)c1ccco1 [Sodium salt of 2-furoic acid] |  |  |  |  |  |  | Tn (16° C./min) [2, 13]: 127 °C; End Groups --COOH [7, 14]: 29 moles × 10^-6 g^-1; End Groups --OH [7, 14]: 62 moles × 10^-6 g^-1; End Groups Total from solution I.V. [7, 14]: 121 moles × 10^-6 g^-1; K [8]: 65 |
| O=C(O)c1cc(O)ccc1O [2,5-dihydroxy benzoic acid] | 22 | 103 | 3 |  |  |  | t1/2 (sec) 110° C. [6]: 85 s; t1/2 (sec) 120° C. [6]: 48 s |
